Literature values as cited in patent US9044508B2, “Concentrated aqueous azalide formulations” (INSITE VISION CORPORATION, priority 2013, dated 2015).

Settings: aqueous formulation

- pH of maximum stability: about 6.3
SMILES: CC[C@H]1OC(=O)[C@H](C)[C@@H](O[C@H]2C[C@@](C)(OC)[C@@H](O)[C@H](C)O2)[C@H](C)[C@@H](O[C@@H]2O[C@H](C)C[C@H](N(C)C)[C@H]2O)[C@](C)(O)C[C@@H](C)CN(C)[C@H](C)[C@@H](O)[C@]1(C)O [azithromycin, N-methyl-1′-aza-10-deoxo-10-dihydroerythromycin]
